We go through three compounds from publication PMC9725750, “The clinical pharmacology of tafenoquine in the radical cure of Plasmodium vivax malaria: An individual patient data meta-analysis” (eLife, 2022).

The subject of one series is blood MetHb. Nature of the series: Blood methaemoglobin (MetHb) concentration on day 7 by pulse CO-oximeter. The series is classed as in vivo, human. From the text: All patients in the phase 1 trial and the three efficacy trials had frequent blood MetHb measurements taken using non-invasive signal extraction pulse CO-oximeter handheld machines. For the three efficacy trials, we excluded measurements taken at or after recurrence of vivax malaria. Because erroneous readings from the handheld oximeters can occur, we inspected visually the longitudinal MetHb curves for each patient. […] All patients from this site were excluded from the MetHb analysis ( n =91), resulting in a total of 9632 MetHb measurements across 746 P. vivax infected patients and 72 healthy volunteers.

The conditions of series [1]: no reference given; cited from earlier work.
For the next series, the system named is Plasmodium vivax. Kind of series: Radical cure efficacy: any P. vivax recurrence within 4 months in patients, pooled DETECTIVE part 1/2 and GATHER (logistic regression and Emax models). The series is classed as in vivo, human. The source says: The primary endpoint for the main efficacy analyses was any P. vivax recurrence within 4 months. We chose the binary endpoint of any recurrence rather than the time to first recurrence because tafenoquine has both asexual stage antimalarial activity ([Fukuda et al., 2017]) and hypnozoiticidal activity. […] The choice of a particular cut-off for follow-up is thus a trade-off between sensitivity and specificity. Longer follow-up will increase the sensitivity of the endpoint (include more relapses) but decrease specificity (include more reinfections).
For all predictors we fitted Bayesian mixed effects logistic regression models (random intercepts for study and study site), with adjustment for day 0 parasitaemia (log transformed). Logistic regression allows inference of the odds-ratio for recurrence for the predictive variable of interest, assuming a linear relationship between the predictive variable and log-odds for recurrence.
For the mg/kg dose (the primary predictor of interest), the dose-response relationship was then assessed under a Bayesian Emax model, where the dose-dependent logit probability of recurrence is defined as: Emax(d,x)=α+βx+δd^k/d^k+γ^k,
The Emax model was also fitted with random intercepts for study and study site.
To determine the main predictors of recurrence, we fitted a multivariable penalised Bayesian logistic regression model. This included the following variables as predictors: the tafenoquine mg/kg dose; the plasma tafenoquine AUC[0,∞); the plasma tafenoquine Cmax; the day 7 MetHb concentration (%); the terminal elimination half-life t1/2; and the baseline parasite density. The model included random intercept terms for each study and study site. […] To avoid convergence issues resulting from the co-linearity of the predictors, the prior on all non-hierarchical coefficients was set to a Normal(0,0.5). This prior effectively shrinks the regression coefficients towards zero. It can be interpreted as follows: plausible odds-ratios for recurrence for one standard deviation change for each of the fixed effect predictors lie approximately between 0.38 and 2.7).
In a priori sensitivity analyses, all recurrences up until 6 months were included as both binary and time to event outcomes. The time to first recurrence was defined as a P. vivax episode between day 7 and day 180 with right censoring at the last recorded visit. We also re-ran the same models in patients who received a 300 mg single dose of tafenoquine only (i.e. the current recommended treatment).

Each structure is given as a SMILES string.

With `CCCCN(CCCC)CC(O)c1cc(Cl)cc2c1-c1ccc(Cl)cc1/C2=C/c1ccc(Cl)cc1` (stereo not drawn) [lumefantrine], the “reduction in day 7 methaemoglobin per ten-fold increase in day 7 plasma lumefantrine concentration” value in the series with blood MetHb (healthy volunteers randomised to tafenoquine + AL, 95% CI 3 to 62%) is on record as 40%.
As for `Clc1ccc2c(N3CCN(CCCN4CCN(c5ccnc6cc(Cl)ccc56)CC4)CC3)ccnc2c1` [piperaquine], the “association of day 7 piperaquine concentration with day 7 MetHb (reduction)” value in the series on blood MetHb (healthy volunteers, tafenoquine + DHA-PQP, no clear association, 95% CI –27 to 72%) is 40%.
Turning to `COc1cc(NC(C)CCCN)c2ncccc2c1` (stereo not drawn) [primaquine], the terminal elimination half-life in series [1] is 5 h. Besides, the “posterior probability that the recurrence was more likely following primaquine” value with Plasmodium vivax (3.5 mg/kg primaquine vs 5 mg/kg tafenoquine) is reported as 0.73. In addition, in the series with Plasmodium vivax (PQ low-dose 15 mg base daily for 14 days + chloroquine, n=257), the “Recurrence at 4 months” value is given as 57 (22.2) total number (%). Also, the “mean probability of recurrence at 4 months” value with Plasmodium vivax (logistic model estimate, following 3.5 mg/kg primaquine, 95% CI 0.10–0.26) is reported as 0.17.
